Experiments:
human tumor cell lines = assay: Cytotoxicity / anti-tumor activity on panel of tumor cell lines; assay type: cell-based
Method: Each of the extracts was then screened against a panel of human tumor and non-tumor cells including human ovarian cancer cell lines, T-leukemic cells, human epidermoid cells, human breast cancer cells, human prostate cancer cells, human foreskin fibroblast cells, human endothelial cells, and human renal cancer cells. The cells were first plated in 96-well plates for 18-24 hours at 37° C. The cells were then exposed to varying concentrations of the plant extracts, and incubated for 72 hours at 37° C., and stained with either MTT (3-(4,5-dimethylethiazol-2-yl)-2,5-diphenyl tetrazolium bromide; Sigma Chemical Co.) for 4 hours or crystal violet (Sigma Chemical Co.) for 20 minutes at room temperature. The MTT plates received lysis buffer (20% sodium dodecyl sulfate in 50% DMF) and were incubated for an additional 6 hours before taking an OD reading at 570 nm. The crystal violet plates were washed, dye was extracted for 3-4 hours with Sorenson's buffer (0.1 M sodium citrate (pH 4.2), 50% v/v ethanol), and the plates were read at 570-600 nm (Mujoo et al., 1996). Cytotoxicity of the screened extracts was indicated by comparing the OD readings between the treated media alone and the cells treated with the plant extract. Percent cytotoxicity was calculated by 100-% of control, where % of control =[((OD of cells treated with plant extract (treated sample))/(OD of cells exposed to media alone (untreated sample)))×100].
The following human cancer cell lines were obtained from American Type Tissue Culture Collection (ATCC, Rockville, Md.). SK-OV-3 and OVCAR-3 (ovarian), Jurkat (T-cell leukemia), U-937 (histiocytic lymphoma), MDA-MB-468, MDA-MB-453, MDA-MB-435, SK-BP-3, MCF-7, MDA-MB-231, BT-20 (breast), LNCaP, PC-3, DU145 (prostate), 769-P, 786-O A498 (renal) and PANC-1 (pancreatic). HEY and Dov-13 (ovarian), cell lines were obtained from M. D. Anderson Cancer Center. The following non-transformed human cell lines MCF-10A and 10F (breast epithelium) were obtained from M. D. Anderson Cancer Center. Hs 27 (human foreskin fibroblasts) and L929 (mouse fibroblasts) were obtained from ATCC. […]

PARP in Jurkat cells = assay: Immunoblot analysis of PARP degradation; assay type: cell-based, human; conditions: 2 μg/ml
Method: Apoptosis induced by F035 & D1 was examined by proteolytic cleavage of poly (ADP-ribose) polymerase (PARP). Jurkat cells (2×10^6/ml) were treated with F035 (2 μg/ml) and D1 (2 μg/ml) for different lengths of time. Cell lysates were prepared in buffer containing 20 mM HEPES, 250 mM NaCl, 2 mM EDTA, 0.1% NP-40, 2 μg/ml leupeptin, 2 μg/ml aprotinin, 0.5 μg/ml benzamidine, 1 mM DTT and 1 mM PMSF. Cellular proteins (60 μg/ml) were separated on a 7.5% SDS polyacrylamide gel and electrotransferred onto a nitrocellulose membrane. The membrane was probed first with monclonal anti-PARP antibody (PharMingen) and then with anti-mouse antibody conjugated to horse radish peroxidase (HRPO). Protein bands were detected by chemiluminescense (ECL, Amersham). The extent of cleavage of the 116-kDa PARP into 85-kDa and 41-kDa peptide products was used as a measure of apoptosis (Tewari et al., 1995).
Immunoblot Analysis of PARP Degradation. Induction of apoptosis was also examined by proteolytic cleavage of PARP (Nicholson and Thornberry, 1997). Jurkat cells (3×10^6) were treated with 2 μg/ml of F094, avicin D, or avicin G at 37° C. Cell lysates were prepared in a buffer containing 20 mM HEPES, 250 mM NaCl, 2 mM EDTA, 0.1% NP-40, 2 μg/ml leupeptin, 2 μg/ml aprotinin, 0.5 μg/ml benzamidine, 1 mM DTT, and 1 mM PMSF. Cellular proteins (60 μg/ml) were separated on a 7.5% SDS polyacrylamide gel and electrotransferred onto a nitrocellulose membrane. The membrane was probed first with monoclonal anti-PARP antibody (Pharmingen) and then with anti-mouse antibody conjugated to horseradish peroxidase (HRPO). Protein bands were detected by chemiluminescence (ECL). The appearance of an 85 kDa cleavage product was used as a measure of apoptosis.

[1] = Biological assays of purified compounds (not specified)
NF-κB = molecular target: T1, NF-κB (Homo sapiens, UniProt P19838+Q04206); assay: In vitro NF-κB DNA binding (EMSA on extracts); assay type: biochemical
T1 construct: endogenous in cells; host or cells: Jurkat cells stimulated with TNF; nuclear extract
T1 sequence (Q04206 whole entry): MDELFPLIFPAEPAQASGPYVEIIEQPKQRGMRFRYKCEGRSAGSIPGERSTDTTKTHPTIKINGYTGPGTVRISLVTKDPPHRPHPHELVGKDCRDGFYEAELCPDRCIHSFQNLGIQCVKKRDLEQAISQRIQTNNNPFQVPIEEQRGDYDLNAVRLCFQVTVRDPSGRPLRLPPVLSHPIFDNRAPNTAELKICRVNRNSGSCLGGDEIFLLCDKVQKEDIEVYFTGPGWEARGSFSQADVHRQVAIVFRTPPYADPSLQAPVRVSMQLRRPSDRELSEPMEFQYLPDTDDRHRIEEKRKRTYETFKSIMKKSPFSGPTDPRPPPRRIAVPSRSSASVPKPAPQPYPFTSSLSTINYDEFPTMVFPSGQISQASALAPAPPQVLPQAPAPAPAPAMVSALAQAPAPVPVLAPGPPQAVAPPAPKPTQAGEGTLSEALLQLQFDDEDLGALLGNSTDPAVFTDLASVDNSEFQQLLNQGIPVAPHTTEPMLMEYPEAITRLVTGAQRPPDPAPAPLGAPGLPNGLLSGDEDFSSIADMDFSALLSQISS
T1 sequence (P19838 1-433 limits assumed): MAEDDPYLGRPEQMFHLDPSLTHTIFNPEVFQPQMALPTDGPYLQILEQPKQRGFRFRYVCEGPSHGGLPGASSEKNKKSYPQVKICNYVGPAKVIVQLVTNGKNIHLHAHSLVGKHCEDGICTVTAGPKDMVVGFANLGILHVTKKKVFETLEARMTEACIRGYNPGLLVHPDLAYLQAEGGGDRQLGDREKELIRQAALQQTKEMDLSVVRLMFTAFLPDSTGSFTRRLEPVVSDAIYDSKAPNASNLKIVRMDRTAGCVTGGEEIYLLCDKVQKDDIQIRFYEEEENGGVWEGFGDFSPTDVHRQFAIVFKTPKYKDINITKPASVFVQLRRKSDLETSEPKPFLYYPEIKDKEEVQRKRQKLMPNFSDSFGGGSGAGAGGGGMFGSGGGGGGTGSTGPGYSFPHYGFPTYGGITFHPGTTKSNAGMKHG
Method: (underline indicates NF-κB binding sites) for 15 min at 37° C. The incubation mixture included 3 μg of poly (dI:dC) in a binding buffer (25 mM HEPES, pH 7.9, 0.5 mM EDTA, 0.5 mM DTT, 1% NP-40, 5% glycerol, 50 mM NaCl). The DNA-protein complex was separated from the free oligonucleotide on a 7.5% polyacrylamide gel. The specificity of NF-κB-DNA binding was examined by competition with a double stranded mutated oligonucleotide, unlabeled oligonucleotide and by supershift of the band by anti-p65 antibody. The radioactive bands from dried gels were visualized on a PhosphoImager (Molecular Dynamics, Sunnyvale, Calif.) and quantitated using ImageQuant Software.
Monoterpene/triterpene glycoside G Inhibits NF-κB-DNA Binding. […] Therefore, the inventors analyzed the effect of monoterpene/triterpene glycoside G1 on the ability of active NF-κB to bind to DNA in a cell-free system. Nuclear extracts from TNF-stimulated cells were incubated with increasing concentrations of monoterpene/triterpene glycoside G1. […] Deoxycholate (DOC) is known to dissociate NF-κB from IκB, thereby making it available in an active nuclear form.

DNA binding of DOC (0.8%) activated NF-κB (NF-κB; cytoplasmic extracts of treated cells) | Structure (SMILES) | IC50 compared with F035 (human tumor cell lines; 769-P, MDA-MB-453, MDA-MB-231) | potency compared with F035 (human tumor cell lines; C-2 (HEY Variant) and Jurkat cells) | time to (almost) complete cleavage of PARP (PARP in Jurkat cells) | biological activity relative to other compounds [1] | cytotoxicity compared with F035 and D1 (human tumor cell lines; most of the cells tested (Jurkat, C-2, 769-P, MDA-MB-231, MDA-MB-453)) | binding of NF-κB to DNA (NF-κB; nuclear extracts from TNF-stimulated cells, 30 min at 37° C.)
– | C=C[C@](C)(O)CC/C=C(\CO)C(=O)O[C@H]1[C@H](O)[C@@H](O)[C@H](O[C@@](C)(C=C)CC/C=C(\CO)C(=O)O[C@H]2C[C@]3(C(=O)O[C@@H]4O[C@H](CO)[C@@H](O)[C@H](O)[C@H]4O[C@@H]4O[C@@H](C)[C@H](O[C@@H]5O[C@@H](CO)[C@H](O)[C@H]5O)[C@@H](O[C@@H]5O[C@H](CO)[C@@H](O)[C@H](O)[C@H]5O)[C@H]4O)[C@H](O)C[C@]4(C)C(=CC[C@@H]5[C@@]6(C)CC[C@H](O[C@@H]7O[C@H](CO[C@@H]8O[C@H](C)[C@H](O)[C@H](O)[C@H]8O[C@@H]8OC[C@@H](O)[C@H](O)[C@H]8O)[C@@H](O)[C@H](O)[C@H]7NC(C)=O)C(C)(C)[C@@H]6CC[C@]54C)[C@@H]3CC2(C)C)O[C@@H]1C [Fraction D1] | comparable to F035 | twice as potent as F035 | 8 to 16 h | considerable biological activity | – | –
decreased DNA binding | C=C[C@](C)(O)CC/C=C(\C)C(=O)O[C@H]1[C@H](O)[C@@H](O)[C@H](O[C@@](C)(C=C)CC/C=C(\CO)C(=O)O[C@H]2C[C@]3(C(=O)O[C@@H]4O[C@H](CO)[C@@H](O)[C@H](O)[C@H]4O[C@@H]4O[C@@H](C)[C@H](O[C@@H]5O[C@@H](CO)[C@H](O)[C@H]5O)[C@@H](O[C@@H]5O[C@H](CO)[C@@H](O)[C@H](O)[C@H]5O)[C@H]4O)[C@H](O)C[C@]4(C)C(=CC[C@@H]5[C@@]6(C)CC[C@H](O[C@@H]7O[C@H](CO[C@@H]8O[C@H](C)[C@H](O)[C@H](O)[C@H]8O[C@@H]8OC[C@@H](O)[C@H](O)[C@H]8O)[C@@H](O)[C@H](O)[C@H]7NC(C)=O)C(C)(C)[C@@H]6CC[C@]54C)[C@@H]3CC2(C)C)O[C@@H]1C [Fraction G1] | – | – | ≤ 4 h | more biologically active than D1 | significantly more cytotoxic than F035 and D1 | inhibited the binding of NF-κB to DNA in a dose-dependent manner
